Experimental data: patent US6365633B1, “Method of treating eating disorders” (Knoll Pharmaceutical Company, priority 1999, dated 2002)

What was measured:
[1] = molecular target: [3H]Noradenaline reuptake in rat brain tissue; assay: in vitro [3H]noradrenaline reuptake inhibition in rat brain tissue; type: biochemical; details: means of ≧3 separate determinations
[2] = molecular target: [3H]Dopamine reuptake in rat brain tissue; assay: in vitro [3H]dopamine reuptake inhibition in rat brain tissue; type: biochemical; details: means of ≧3 separate determinations

Compound | Ki [1] [nM] | Ki [2] [nM]
COc1ccc(C(CN(C)C)C2(O)CCCCC2)cc1 (stereo not shown) [Venlafaxine] | 196 | 2590
CC(NC(C)(C)C)C(=O)c1cccc(Cl)c1 (stereo not shown) [Bupropion] | 2590 | 409
